The text below walks through data of publication PMC5376326, “Inhibition of ANO1 by luteolin and its cytotoxicity in human prostate cancer PC-3 cells” (PLoS ONE, 2017).

For one experiment, the system named is ANO1.
Assay: not given
The settings on record: read-out: IC50, ANO1 inhibition; cited from earlier work.
Usually IC50 stands for the concentration that inhibits the measured activity by half. In the case of `CC(C)(C)C1CCc2c(sc(NC(=O)c3ccco3)c2C(=O)O)C1` (stereo not drawn) [CaCCinh-A01], the IC50 was […].

For `COc1cc(Nc2ccc([N+](=O)[O-])cc2C(=O)O)cc2ccccc12` [MONNA], the IC50 was approximately 1 µM.

As for `CCc1c(C)nc(SCC(=O)Nc2nc(-c3ccc(OC)cc3)cs2)[nH]c1=O` [T16Ainh-A01], the IC50 is approximately 1 µM.

Consider `COC1=C(OC)C(=O)C(CCCCCCCCCCO)=C(C)C1=O` [idebenone], for which the IC50 is approximately 9 µM.

As to tannic acid, the IC50 was approximately 6 µM.

For the next experiment, the target named is T1, human ANO1 (abc) (Homo sapiens, UniProt Q5XXA6, DEL476-501).
T1 sequence (Q5XXA6 with tags, fused parts or gaps isoform Q5XXA6-5 DEL539-564): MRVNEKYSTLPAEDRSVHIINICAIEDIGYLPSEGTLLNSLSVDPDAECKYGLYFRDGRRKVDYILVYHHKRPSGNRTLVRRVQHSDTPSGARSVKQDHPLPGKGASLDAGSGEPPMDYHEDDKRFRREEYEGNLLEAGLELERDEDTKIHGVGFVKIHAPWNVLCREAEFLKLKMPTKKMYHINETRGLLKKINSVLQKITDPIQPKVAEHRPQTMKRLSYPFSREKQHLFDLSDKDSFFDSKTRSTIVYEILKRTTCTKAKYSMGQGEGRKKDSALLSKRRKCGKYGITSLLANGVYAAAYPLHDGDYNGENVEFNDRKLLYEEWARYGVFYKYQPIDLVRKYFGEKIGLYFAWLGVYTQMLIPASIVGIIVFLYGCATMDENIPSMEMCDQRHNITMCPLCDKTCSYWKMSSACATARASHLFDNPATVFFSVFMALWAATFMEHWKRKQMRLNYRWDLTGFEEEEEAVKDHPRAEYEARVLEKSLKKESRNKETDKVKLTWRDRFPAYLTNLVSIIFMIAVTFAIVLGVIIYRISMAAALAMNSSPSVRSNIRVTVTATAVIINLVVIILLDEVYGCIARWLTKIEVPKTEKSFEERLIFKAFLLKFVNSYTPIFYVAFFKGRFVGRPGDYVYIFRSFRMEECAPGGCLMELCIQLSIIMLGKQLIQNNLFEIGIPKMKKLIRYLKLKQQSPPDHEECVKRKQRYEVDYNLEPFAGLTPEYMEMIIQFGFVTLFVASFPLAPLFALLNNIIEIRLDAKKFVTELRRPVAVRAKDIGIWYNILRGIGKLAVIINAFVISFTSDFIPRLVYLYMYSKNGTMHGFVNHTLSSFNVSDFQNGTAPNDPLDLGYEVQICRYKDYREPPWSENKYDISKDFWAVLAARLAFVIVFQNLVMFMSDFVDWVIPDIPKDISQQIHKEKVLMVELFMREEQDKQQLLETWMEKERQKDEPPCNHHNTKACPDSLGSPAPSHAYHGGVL
The experiment in a line: YFP fluorescence quenching assay (iodide influx) in FRT cells expressing human ANO1. Format: cell-based. The settings on record: FRT cells expressing ANO1 and YFP; ATP activation; mean ± S.E., n = 3; read-out: IC50, ANO1 inhibition (YFP fluorescence quenching). The protocol: Fisher rat thyroid (FRT) cells were stably transfected with human ANO1 (abc) or mouse ANO2 and the halide sensor YFP as described in previous study. FRT cells were cultured in Coon`s modified F12 medium with 10% FBS, 2 mM L-glutamine, 100 units/ml penicillin and 100 μg/ml streptomycin at 37°C and 5% CO2. PC-3 cells were grown in RPMI 1640 medium supplemented with 10% FBS, 100 units/ml penicillin and 100 μg/ml streptomycin at 37°C and 5% CO2. There were populations of PC-3 cells with high and low expression of ANO1. To separate high and low levels of ANO1 expressing PC-3 cells, cells were stably transfected with the halide sensor YFP-H148Q/I152L/F46L and then the cells were plated on 96 well plates at 1 cell per well. After two weeks of incubation, high and low levels of ANO1 expressing PC-3 cells were separated by YFP quenching assay. ANO1 was activated by 100 μM ATP.
ANO1 and YFP expressing FRT cells were plated in 96-well black-walled microplates (Corning Inc., Corning, NY) at a density of 20,000 cells per well. Assays were done using FLUOstar Omega microplate reader (BMG Labtech, Ortenberg, Germany) and MARS Data Analysis Software (BMG Labtech) as described in our previous study. Briefly, each well of 96-well plate was washed 3 times in PBS (200 μL/wash) and test compounds were added to each well at 25 μM final concentration. After 10 minutes incubation at 37°C, 96-well plates were transferred to the plate reader for fluorescence assay. Each well was assayed individually for ANO1-mediated I^- influx by monitoring YFP fluorescence continuously (400 ms per point) for 2 s (baseline), then 140 mM I^- solution containing 200 μM ATP was added at 2 s and then YFP fluorescence was recorded for 6 s. Initial iodide influx rate was determined from the initial slope of fluorescence decrease, by nonlinear regression, following infusion of iodide with ATP.
`O=c1cc(-c2ccc(O)cc2)oc2cc(O)cc(O)c12` [Apigenin]: the IC50 is 15.79 ± 0.03 µM.

For `O=c1cc(-c2ccccc2)oc2cc(O)c(O)c(O)c12` [Baicalein], the IC50 amounted to 49.6 ± 0.05 µM.

For `O=c1cc(-c2ccccc2)oc2cc(O)cc(O)c12` [Chrysin], the IC50 is 15.15 ± 0.1 µM.

Consider `O=c1c(O)c(-c2ccccc2)oc2cc(O)cc(O)c12` [Galangin], for which the IC50 turned out to be 9.66 ± 0.01 µM.
